Data set [1] relates to migration of hESC-derived neural crest cells (NCC). Nature of the data set: MINC assay (migration inhibition of neural crest cells, UKN2). The following applies: 48 h, in a non-cytotoxic concentration range.
Data set [2] deals with rats. The following applies: single oral dose to dams on gestational day 6, Wistar rat; ref Kuriyama et al. (2005); cited from earlier work.
The conditions of data set [3]: cited from earlier work; for Geometric mean concentration in maternal serum: ref Eskenazi et al. (2013); for Average concentration in breast milk: ref Gascon et al. (2012).
In data set [4] the test system is hESC-derived neural crest cells (NCC). The following applies: human.
Details of data set [5]: method as in US EPA [2006]. Conditions: ref US EPA [2006]; cited from earlier work.
The test system of data set [6] is mESC-derived neural stem cells (mESCn). Conditions: mouse.
Another data set has as its system HEK293 cells. Conditions: human.
On the set-up of data set [7]: method as in US EPA [2006]. The following applies: ref US EPA [2006]; cited from earlier work. The source holds these as a separate data set.
For a further data set, the system named is Xenopus laevis embryos. Also noted: method as in Di Renzo et al. (2011). The following applies: treated during early neurulation; craniofacial defects, bent forebrain, abnormal hindbrain segmentation; ref Di Renzo et al. (2011); cited from earlier work.
Data set [8] has as its system rats. The following applies: cited from earlier work.

“And” between values parts separate entries of the source, which are not always exact repeats. Equal values may be shown once. Read-outs that look alike come from different tables or passages of the source.

For `Brc1ccc(Oc2cc(Br)c(Br)cc2Br)c(Br)c1` [PBDE-99, 2,2′,4,4′,5-pentabromodiphenyl ether], the “Effect on NCC migration in concentration-response study” value in [1] was “concentration-dependent effect”. Moreover, the “Dose causing hyperactivity and impaired spermatogenesis in offspring” value in the data set on rats [2] was 0.11 µmol/kg. In data set [3] (converted), the “Geometric mean concentration in maternal serum” value was 25 ng/l and 44 pM; the “Average concentration in breast milk” value is 1 ng/l and 1.8 pM. Moreover, in data set [3], the “Geometric mean concentration in maternal serum” value was 4.5 ng/g and the “Average concentration in breast milk” value is recorded as 0.27 ng/g lw.

As for `CC(C)(C)C(=O)C(Oc1ccc(Cl)cc1)n1cncn1` (stereo not drawn) [Triadimefon], in [4], the “Concentration for hit finding in NCC (highest non-cytotoxic concentration in the UKN2 test system)” value was 50 µM. In [5], the “Blood:plasma concentration ratio” value is recorded as 0.84 and the “Free (unbound) fraction” value is given as 0.11. In data set [6], the “Highest non-cytotoxic conc. in mESCn” value was over 50.0 µM. In addition, in [1], the “Effect on NCC migration in concentration-response study” value is recorded as “concentration-dependent effect”. In addition, in the data set on HEK293 cells, the “Highest non-cytotoxic conc. in HEK293” value came out at 50.0 µM. Also, the “Octanol:water partition (Kow)” value in data set [7] was 912. For the same compound, the Concentration inducing abnormalities with Xenopus laevis embryos is 500 µM. The “Dose increasing testosterone levels and related effects in male offspring” value in the data set with rats [8] (Wistar rats, perinatal exposure, ref Goetz et al. (2007)) was 47 mg/kg/day. Further, the “Dose causing the same neurotoxic symptoms” value in the data set on rats [8] (chronic dietary exposure, male Wistar rats, ref US EPA (2006)) is 54.6 mg/kg/day. In addition, in the data set with rats [8] (effects on male fertility and CNS toxicity, ref Crowell et al. 2011), the “Doses at which a range of toxic effects is observed” value is “around 50 mg/kg/day”. For the same compound, the “Dose causing transient CNS toxicity (hyperactivity, stereotyped behavior)” value in the data set on rats [8] (single dose, oral gavage, adult male Long-Evans rats, ref Crofton et al. (2011)) is 50 mg/kg.

The values are drawn from publication PMC3996367, “Profiling of drugs and environmental chemicals for functional impairment of neural crest migration in a novel stem cell-based test battery” (Archives of Toxicology, 2014).
